{"source": "patent US6706740B2", "about": "“Fungicidal heterocyclic aromatic amides and their compositions, methods of use and preparation” (Dow AgroSciences LLC, priority 1999, dated 2004)", "key": {"[1]": {"system": "Phytophthora infestans (PHYTIN)", "assay": "microbe, parasite or virus in culture", "format": "cell-based", "conditions": "Phytophthora infestans, read-out: PHYTIN in vitro Growth Inhibition"}, "[2]": {"system": "Mycosphaerella graminicola (Septoria tritici—SEPTTR)", "assay": "In vitro fungal growth inhibition, Mycosphaerella graminicola (SEPTTR)", "format": "cell-based", "conditions": "Zymoseptoria tritici, read-out: SEPTTR in vitro Growth Inhibition"}, "[3]": {"system": "Magnaporthe grisea (Pyricularia oryzae—PYRIOR)", "assay": "microbe, parasite or virus in culture", "format": "cell-based", "conditions": "Pyricularia oryzae, read-out: PYRIOR in vitro Growth Inhibition"}, "[4]": {"system": "Stagonospora nodorum (Leptosphaeria nodorum—LEPTNO)", "assay": "In vitro fungal growth inhibition, Stagonospora nodorum (LEPTNO)", "format": "cell-based", "conditions": "Leptosphaeria, read-out: LEPTNO in vitro Growth Inhibition"}, "[5]": {"system": "Phytophthora infestans—PHYTIN", "assay": "whole plant or invertebrate", "format": "in vivo", "conditions": "Phytophthora, in Solanum lycopersicum, 24 h, read-out: PHYTIN in vivo 1 Day Protectant"}, "[6]": {"system": "Leptosphaeria nodorum—LEPTNO", "assay": "Glume Blotch of Wheat, in vivo whole plant, 24 Hour Protectant", "conditions": "for pest or weed control at 100 ppm: Leptosphaeria, control of fungal infection vs untreated plants, read-out: LEPTNO in vivo 1 Day Protectant"}, "Septoria tritici—SEPTTR": {"system": "Septoria tritici—SEPTTR", "assay": "Leaf Blotch of Wheat, in vivo whole plant, 24 Hour Protectant", "conditions": "for pest or weed control at 100 ppm: Zymoseptoria tritici, 24 h, control of fungal infection vs untreated plants, read-out: SEPTTR in vivo 1 Day Protectant"}, "[7]": {"system": "Puccinia recondita—PUCCRT", "assay": "Brown Rust of Wheat, in vivo whole plant, 24 Hour Protectant", "conditions": "for pest or weed control at 100 ppm: Puccinia, read-out: PUCCRT in vivo 1 Day Protectant"}, "Erysiphe graminis—ERYSGT": {"system": "Erysiphe graminis—ERYSGT", "assay": "Powdery Mildew of Wheat, in vivo whole plant, 24 Hour Protectant", "conditions": "for pest or weed control at 100 ppm: Erysiphe, control of fungal infection vs untreated plants, read-out: ERYSGT in vivo 1 Day Protectant"}, "[8]": {"system": "Rhizoctonia solani (RHIZSO)", "assay": "microbe, parasite or virus in culture", "format": "cell-based", "conditions": "Rhizoctonia solani, read-out: RHIZSO in vitro Growth Inhibition"}, "Ustilago maydis (USTIMA)": {"system": "Ustilago maydis (USTIMA)", "assay": "microbe, parasite or virus in culture", "format": "cell-based", "conditions": "Mycosarcoma maydis, read-out: USTIMA in vitro Growth Inhibition"}, "[9]": {"conditions": "wheat plants sprayed at 100 ppm, inoculated after 24 hours"}, "[10]": {"conditions": "wheat plants sprayed at 100 ppm, inoculated after 24 hours, control of fungal infection vs untreated plants"}, "[11]": {"conditions": "100 ppm spray, wheat, 24 hour protectant"}, "[12]": {"conditions": "100 ppm spray, wheat, 24 hour protectant, control of fungal infection vs untreated plants"}, "[13]": {"conditions": "100 ppm spray, wheat, 24 hour protectant, % control of fungal infection vs untreated plants"}}, "note": "Read-outs that look alike come from different tables or passages of the source."}
{"smiles": "COC(=O)C(COC(=O)C(C)c1ccccc1)NC(=O)c1nccc(OC)c1OC(C)=O", "note": "(centres unmarked) [Compound 581]", "values": [{"measurement": "inhibition at 25 ppm", "setting": "[1]", "value": "< 80", "unit": "%"}, {"measurement": "inhibition at 25 ppm", "setting": "[2]; 25 ppm in the growth medium", "value": "< 80", "unit": "%"}, {"measurement": "inhibition at 25 ppm", "setting": "[3]", "value": "< 80", "unit": "%"}, {"measurement": "inhibition at 25 ppm", "setting": "[4]; 25 ppm in the growth medium", "value": "< 80", "unit": "%"}, {"measurement": "pest or weed control at 100 ppm", "setting": "[5]", "value": "< 25", "unit": "%"}, {"measurement": "pest or weed control at 100 ppm", "setting": "[6]; [9]", "value": "25 to 74", "unit": "%"}, {"measurement": "pest or weed control at 100 ppm", "setting": "Septoria tritici—SEPTTR; [9]", "value": "25 to 74", "unit": "%"}, {"measurement": "pest or weed control at 100 ppm", "setting": "[7]; [10]", "value": "< 25", "unit": "%"}, {"measurement": "pest or weed control at 100 ppm", "setting": "Erysiphe graminis—ERYSGT; [9]", "value": "< 25", "unit": "%"}, {"measurement": "inhibition at 25 ppm", "setting": "[8]", "value": "< 80", "unit": "%"}, {"measurement": "inhibition at 25 ppm", "setting": "Ustilago maydis (USTIMA)", "value": "< 80", "unit": "%"}]}
{"smiles": "COc1ccnc(C(=O)N[C@@H]2C(=O)O[C@@H](C)C[C@@H](C)C(=O)O[C@@H]2C)c1O", "note": "[Compound 381]", "values": [{"measurement": "inhibition at 25 ppm", "setting": "[1]", "value": "< 80", "unit": "%"}, {"measurement": "inhibition at 25 ppm", "setting": "[2]; 25 ppm in growth medium", "value": "> 80", "unit": "%"}, {"measurement": "inhibition at 25 ppm", "setting": "[3]", "value": "< 80", "unit": "%"}, {"measurement": "inhibition at 25 ppm", "setting": "[4]; 25 ppm in growth medium", "value": "> 80", "unit": "%"}, {"measurement": "pest or weed control at 100 ppm", "setting": "[5]", "value": "< 25", "unit": "%"}, {"measurement": "pest or weed control at 100 ppm", "setting": "[6]; [11]", "value": "< 25", "unit": "%"}, {"measurement": "pest or weed control at 100 ppm", "setting": "Septoria tritici—SEPTTR; [11]", "value": "< 25", "unit": "%"}, {"measurement": "pest or weed control at 100 ppm", "setting": "[7]; [12]", "value": "25 to 74", "unit": "%"}, {"measurement": "pest or weed control at 100 ppm", "setting": "Erysiphe graminis—ERYSGT; [11]", "value": "< 25", "unit": "%"}, {"measurement": "inhibition at 25 ppm", "setting": "[8]", "value": "< 80", "unit": "%"}, {"measurement": "inhibition at 25 ppm", "setting": "Ustilago maydis (USTIMA)", "value": "< 80", "unit": "%"}]}
{"smiles": "COC(=O)C(COC(=O)C(COC(=O)C(C)C)Cc1ccccc1)NC(=O)c1nccc(OC)c1O", "note": "(centres unmarked) [Compound 349]", "values": [{"measurement": "inhibition at 25 ppm", "setting": "[1]", "value": "< 80", "unit": "%"}, {"measurement": "inhibition at 25 ppm", "setting": "[2]; 25 ppm in growth medium", "value": "< 80", "unit": "%"}, {"measurement": "inhibition at 25 ppm", "setting": "[3]", "value": "< 80", "unit": "%"}, {"measurement": "inhibition at 25 ppm", "setting": "[4]; 25 ppm in growth medium", "value": "< 80", "unit": "%"}, {"measurement": "pest or weed control at 100 ppm", "setting": "[5]", "value": "< 25", "unit": "%"}, {"measurement": "pest or weed control at 100 ppm", "setting": "[6]; [11]", "value": "< 25", "unit": "%"}, {"measurement": "pest or weed control at 100 ppm", "setting": "Septoria tritici—SEPTTR; [11]", "value": "< 25", "unit": "%"}, {"measurement": "PUCCRT in vivo 1 Day Protectant", "setting": "[7]; [12]", "value": "+ +"}, {"measurement": "pest or weed control at 100 ppm", "setting": "Erysiphe graminis—ERYSGT; [11]", "value": "< 25", "unit": "%"}, {"measurement": "inhibition at 25 ppm", "setting": "[8]", "value": "< 80", "unit": "%"}, {"measurement": "inhibition at 25 ppm", "setting": "Ustilago maydis (USTIMA)", "value": "< 80", "unit": "%"}]}
{"smiles": "O=C(NCc1ccccc1)c1ccncc1O", "note": "[Compound 506]", "values": [{"measurement": "inhibition at 25 ppm", "setting": "[1]", "value": "< 80", "unit": "%"}, {"measurement": "inhibition at 25 ppm", "setting": "[2]; 25 ppm in the growth medium", "value": "< 80", "unit": "%"}, {"measurement": "inhibition at 25 ppm", "setting": "[3]", "value": "< 80", "unit": "%"}, {"measurement": "inhibition at 25 ppm", "setting": "[4]; 25 ppm in the growth medium", "value": "< 80", "unit": "%"}, {"measurement": "pest or weed control at 100 ppm", "setting": "[5]", "value": "< 25", "unit": "%"}, {"measurement": "pest or weed control at 100 ppm", "setting": "[6]; [9]", "value": "< 25", "unit": "%"}, {"measurement": "pest or weed control at 100 ppm", "setting": "Septoria tritici—SEPTTR; [9]", "value": "< 25", "unit": "%"}, {"measurement": "pest or weed control at 100 ppm", "setting": "[7]; [10]", "value": "< 25", "unit": "%"}, {"measurement": "pest or weed control at 100 ppm", "setting": "Erysiphe graminis—ERYSGT; [9]", "value": "< 25", "unit": "%"}, {"measurement": "inhibition at 25 ppm", "setting": "[8]", "value": "< 80", "unit": "%"}, {"measurement": "inhibition at 25 ppm", "setting": "Ustilago maydis (USTIMA)", "value": "< 80", "unit": "%"}]}
{"smiles": "COc1ccnc(C(=O)Nc2cccc(Oc3ccccc3C)c2)c1O", "note": "[Compound 412]", "values": [{"measurement": "inhibition at 25 ppm", "setting": "[1]", "value": "< 80", "unit": "%"}, {"measurement": "inhibition at 25 ppm", "setting": "[2]; 25 ppm in growth medium", "value": "> 80", "unit": "%"}, {"measurement": "inhibition at 25 ppm", "setting": "[3]", "value": "> 80", "unit": "%"}, {"measurement": "inhibition at 25 ppm", "setting": "[4]; 25 ppm in growth medium", "value": "> 80", "unit": "%"}, {"measurement": "pest or weed control at 100 ppm", "setting": "[5]", "value": "< 25", "unit": "%"}, {"measurement": "pest or weed control at 100 ppm", "setting": "[6]; [11]", "value": "< 25", "unit": "%"}, {"measurement": "pest or weed control at 100 ppm", "setting": "Septoria tritici—SEPTTR; [11]", "value": "< 25", "unit": "%"}, {"measurement": "pest or weed control at 100 ppm", "setting": "[7]; [12]", "value": "25 to 74", "unit": "%"}, {"measurement": "pest or weed control at 100 ppm", "setting": "Erysiphe graminis—ERYSGT; [11]", "value": "< 25", "unit": "%"}, {"measurement": "inhibition at 25 ppm", "setting": "[8]", "value": "< 80", "unit": "%"}, {"measurement": "inhibition at 25 ppm", "setting": "Ustilago maydis (USTIMA)", "value": "< 80", "unit": "%"}]}
{"smiles": "COc1ccccc1Oc1cccc(NC(=O)c2nccc(OC)c2O)c1", "note": "[Compound 430]", "values": [{"measurement": "inhibition at 25 ppm", "setting": "[1]", "value": "< 80", "unit": "%"}, {"measurement": "inhibition at 25 ppm", "setting": "[2]; 25 ppm in growth medium", "value": "< 80", "unit": "%"}, {"measurement": "inhibition at 25 ppm", "setting": "[3]", "value": "< 80", "unit": "%"}, {"measurement": "inhibition at 25 ppm", "setting": "[4]; 25 ppm in growth medium", "value": "< 80", "unit": "%"}, {"measurement": "pest or weed control at 100 ppm", "setting": "[5]", "value": "25 to 74", "unit": "%"}, {"measurement": "pest or weed control at 100 ppm", "setting": "[6]; [11]", "value": "< 25", "unit": "%"}, {"measurement": "pest or weed control at 100 ppm", "setting": "Septoria tritici—SEPTTR; [11]", "value": "< 25", "unit": "%"}, {"measurement": "pest or weed control at 100 ppm", "setting": "[7]; [12]", "value": "< 25", "unit": "%"}, {"measurement": "pest or weed control at 100 ppm", "setting": "Erysiphe graminis—ERYSGT; [11]", "value": "< 25", "unit": "%"}, {"measurement": "inhibition at 25 ppm", "setting": "[8]", "value": "< 80", "unit": "%"}, {"measurement": "inhibition at 25 ppm", "setting": "Ustilago maydis (USTIMA)", "value": "< 80", "unit": "%"}]}
{"smiles": "CCC(C)C(=O)O[C@H]1[C@H](C)OC(=O)[C@@H](NC(=O)c2nccc(OC)c2OC(C)=O)COC(=O)[C@@H]1Cc1ccccc1", "note": "(some centres unmarked) [Compound 701]", "values": [{"measurement": "inhibition at 25 ppm", "setting": "[1]", "value": "< 80", "unit": "%"}, {"measurement": "inhibition at 25 ppm", "setting": "[2]; 25 ppm in growth medium", "value": "> 80", "unit": "%"}, {"measurement": "inhibition at 25 ppm", "setting": "[3]", "value": "< 80", "unit": "%"}, {"measurement": "inhibition at 25 ppm", "setting": "[4]; 25 ppm in growth medium", "value": "> 80", "unit": "%"}, {"measurement": "pest or weed control at 100 ppm", "setting": "[5]", "value": "< 25", "unit": "%"}, {"measurement": "LEPTNO in vivo 1 Day Protectant", "setting": "[6]; [13]", "value": "+ +"}, {"measurement": "SEPTTR in vivo 1 Day Protectant", "setting": "Septoria tritici—SEPTTR; [13]", "value": "+ +"}, {"measurement": "PUCCRT in vivo 1 Day Protectant", "setting": "[7]; [13]", "value": "+ +"}, {"measurement": "ERYSGT in vivo 1 Day Protectant", "setting": "Erysiphe graminis—ERYSGT; [13]", "value": "+ +"}, {"measurement": "inhibition at 25 ppm", "setting": "[8]", "value": "< 80", "unit": "%"}, {"measurement": "inhibition at 25 ppm", "setting": "Ustilago maydis (USTIMA)", "value": "< 80", "unit": "%"}]}
